pIC50: −log10 of the molar value.
Assays:
[1] = system: T-cell proliferation in canine whole blood; experiment: Canine in vitro T-cell Proliferation Assay; type: cell-based; settings: Canis lupus familiaris, ConA + canine IL-2, tritiated thymidine
Method: Methods: Canine whole blood was collected in sodium heparin tubes from 29 beagle dogs and 23 mixed breed dogs. Whole blood (20 μL) was plated in 96-well plates (Costar 3598) with 180 μL of medium (RPMI 1640, Gibco #21870-076, with 1% heat inactivated fetal bovine serum, Gibco #10082-39, 292 μg/ml L-glutamine, Gibco #250030-081, 100 u/ml penicillin and 100 μg streptomycin per ml, Gibco #15140-122) containing vehicle control or test compound (0.001 to 10 μM), concanavalin A (ConA; 1 μg/ml, Sigma C5275), and canine interleukin-2 (IL-2; 50 ng/ml, R&D Systems 1815-CL/CF). Wells containing whole blood, medium with vehicle control and no ConA or IL-2 were used as background controls. Plates were incubated at 37° C. for 48 hours. Tritiated thymidine, 0.4 μCi/well (Perkin Elmer, Net027A-005MC), was added for 20 additional hours. Plates were frozen and then thawed, washed and filtered using a Brandel MLR-96 cell harvester and prewet filter mats (Wallac 1205-401, Perkin Elmer). Filters were dried at 60° C. for one hour (Precision 16EG convection oven) and placed into filter sample bags (Wallac 1205-411, Perkin Elmer) with 10 mL of scintillant (Wallac 1205-440, Perkin Elmer). Sealed filters were counted on a LKB Wallac 1205 Betaplate liquid scintillation counter. Data were collected via Gterm Betaplate program v1.1 (Wallac copyright 1989-1990) and transformed into percent inhibition, calculated using the following formula: […]

flea allergic dogs = experiment: Reducing Flea-associated Pruritus and Dermatitis Assay; type: in vivo; settings: for pruritus as compared to placebo (seconds of pruritus per 4 hour recording): 10% level of significance
Method: Twenty eight male and female dogs of mixed breeds ranging in weight from 5-35 kg and greater than one year of age were infested with approximately 100 unfed adult cat fleas (Ctenocephalides felis) 14 days prior to the start of dosing and reinfested with 30 fleas per dog every 4 days throughout the study. Seven days before dosing, twenty four dogs were randomized into three different treatment groups, placebo, 0.5 mg/kg or 0.25 mg/kg of the compound of Example 1b, based on visual analog scale (VAS) scores for skin lesions. Treatments were given orally twice a day for 28 days, and pruritic behavior as well as erythema and skin lesions were was assessed during the study. Pruritic behavior was recorded by placing dogs into pens with video recording capability, and recording their activity over 4 hours. Pruritic activity was quantitated by determining how many seconds the dogs spent scratching. Skin lesions were recorded by image capture of abdominal, inguinal region and the severity ranked according to a visual analog scale (VAS).
Video captured elapsed time of pruritic behavior was analyzed using a mixed linear model for repeated measures. The model included fixed effects of treatment and day of study and the interaction of treatment and day of study. Random effects included block, the interaction of block and treatment and error. Baseline data for pruritic behavior (day-1) were used as covariate in the analysis of pruritic behavior. Least squares means were used as estimates of treatment means. Standard errors of least squares means were estimated and 90% confidence intervals were constructed. Geometric means were computed from the least squares means for log-transformed data. A priori contrasts were used to assess treatment. Treatment differences were assessed at the 10% level of significance (P≦0.10).

SMILES | pIC50 ([1]; whole blood from beagles) | pIC50 ([1]; whole blood from mixed breed dogs) | pruritus as compared to placebo (seconds of pruritus per 4 hour recording) (flea allergic dogs; 0.25 mg/kg orally twice a day, days 1, 4 and 12) | Lesions and erythema (VAS) (flea allergic dogs; 0.5 mg/kg orally twice a day for 28 days, flea allergic dogs) | pruritus as compared to placebo (seconds of pruritus per 4 hour recording) (flea allergic dogs; 0.5 mg/kg orally twice a day, days 1 and 20)
CNS(=O)(=O)C[C@H]1CC[C@H](N(C)c2ncnc3[nH]ccc23)CC1 [Example 1a, N-methyl-1-{trans-4-[methyl(7H-pyrrolo[2,3-d]pyrimidin-4-yl)amino]cyclohexyl}methanesulfonamide] | 7.18 | 6.86 |  |  | 
CNS(=O)(=O)C[C@H]1CC[C@H](N(C)c2ncnc3[nH]ccc23)CC1.O=C(O)/C=C\C(=O)O [Example 1b, N-methyl-1-{trans-4-[methyl(7H-pyrrolo[2,3-d]pyrimidin-4-yl)amino]cyclohexyl}methanesulfonamide maleic acid salt] |  |  | Significant reductions | significantly reduced | Significant reductions
CN(c1ncnc2[nH]ccc12)[C@H]1CC[C@H](CS(=O)(=O)NC2CCC2)CC1 [Example 2, N-cyclobutyl-1-{trans-4-[methyl(7H-pyrrolo[2,3-d]pyrimidin-4-yl)amino]cyclohexyl}methanesulfonamide] | 6.39 |  |  |  | 

From patent publication US9271981B2, “Pyrrolo[2,3-D]pyrimidine compounds” (Zoetis Services LLC, priority 2008, dated 2016)
